How the values were obtained:
[1] = tested on: Echinochloa oryzoides (Ard.) Fritsch.; assay: Preemergence weed control under flooded paddy conditions, ECHORC (Watergrass (Calif.)); assay type: in vivo; conditions: flooded paddy, rated three to four weeks after treatment
[2] = tested on: Cyperus iria; assay: Preemergence weed control under flooded paddy conditions, CYPIR (Rice Flatsedge); assay type: in vivo; conditions: flooded paddy, rated three to four weeks after treatment
[3] = tested on: Monochoria vaginalis, Presl.; assay: Preemergence weed control under flooded paddy conditions, MOOVA (Monochoria); assay type: in vivo; conditions: flooded paddy, rated three to four weeks after treatment
[4] = tested on: Sagittaria pygmaea, L.; assay: Preemergence weed control under flooded paddy conditions, SAGPY (Arrowhead (Pygmaea)); assay type: in vivo; conditions: flooded paddy, rated three to four weeks after treatment
[5] = tested on: Oryza sativa, (L.) Tebonnet; assay: Rice tolerance to post-transplant applications under flooded paddy conditions (Example 187), ORYSAT (Rice, Tebonnet); conditions: rated three to four weeks after treatment
[6] = Rate 0.0320 kg/ha, preemergence weeds
[7] = Rate 0.0620 kg/ha, preemergence weeds
[8] = Rate 0.1250 kg/ha, preemergence weeds
[9] = Rate 0.2500 kg/ha, preemergence weeds
[10] = Rate 0.0320 kg/ha, preemergence
[11] = Rate 0.0620 kg/ha, preemergence
[12] = Rate 0.1250 kg/ha, preemergence
[13] = Rate 0.2500 kg/ha, preemergence
[14] = Rate 0.5000 kg/ha, preemergence
Note: meaning of each grade not given here.

In the case of `Cn1c(C(F)(F)F)cc(=O)n(-c2ccc3snc(CSCC(=O)NS(C)(=O)=O)c3c2)c1=O` [Example 297, Acetamide, 2-{{{5-[3,6-dihydro-3-methyl-2,6-dioxo-4-(trifluoromethyl)-1(2H)-pyrimidinyl]-1,2-benzisothiazol-3-yl}methyl}thio}-N-(methylsulfonyl)-], the “herbicidal effect rating, ECHORC” value [1, 6] is reported as 0.0, the “herbicidal effect rating, ECHORC” value [1, 7] is reported as 0.0 and the “herbicidal effect rating, ECHORC” value [1, 8] is reported as 3.0. For the same compound, the “herbicidal effect rating, ECHORC” value [1, 9] was 4.0, the “herbicidal effect rating, CYPIR” value [2, 6] was 4.0 and the “herbicidal effect rating, CYPIR” value [2, 7] was 5.0. For the same compound, the “herbicidal effect rating, CYPIR” value [2, 8] was 7.0, the “herbicidal effect rating, CYPIR” value [2, 9] was 9.0 and the “herbicidal effect rating, MOOVA” value [3, 6] was 9.0. For the same compound, the “herbicidal effect rating, MOOVA” value [3, 7] was 9.0, the “herbicidal effect rating, MOOVA” value [3, 8] was 9.0 and the “herbicidal effect rating, MOOVA” value [3, 9] was 9.0. The “herbicidal effect rating, SAGPY” value [4, 6] was 0.0, the “herbicidal effect rating, SAGPY” value [4, 7] was 0.0 and the “herbicidal effect rating, SAGPY” value [4, 8] was 3.0. For the same compound, the “herbicidal effect rating, SAGPY” value [4, 9] was 9.0, the “herbicidal effect rating ORYSAT” value ([5]; Rate 0.0320 kg/ha) was 0.0 and the “herbicidal effect rating ORYSAT” value ([5]; Rate 0.0620 kg/ha) was 0.0. For the same compound, the “herbicidal effect rating ORYSAT” value ([5]; Rate 0.1250 kg/ha) was 0.0 and the “herbicidal effect rating ORYSAT” value ([5]; Rate 0.2500 kg/ha) was 2.0.

`CNC.Cn1c(C(F)(F)F)cc(=O)n(-c2ccc3snc(CSCC(=O)NS(C)(=O)=O)c3c2)c1=O` [Example 298, Acetamide, 2-{{{5-[3,6-dihydro-3-methyl-2,6-dioxo-4-(trifluoromethyl)-1(2H)-pyrimidinyl]-1,2-benzisothiazol-3-yl}methyl}thio}-N-(methylsulfonyl)-, dimethylamine salt] was tested, and the “herbicidal effect rating, ECHORC” value [1, 6] was 0.0, the “herbicidal effect rating, ECHORC” value [1, 7] was 0.0 and the “herbicidal effect rating, ECHORC” value [1, 8] was 0.0. For the same compound, the “herbicidal effect rating, ECHORC” value [1, 9] was 3.0, the “herbicidal effect rating, CYPIR” value [2, 6] was 3.0 and the “herbicidal effect rating, CYPIR” value [2, 7] was 9.0. For the same compound, the “herbicidal effect rating, CYPIR” value [2, 8] was 9.0, the “herbicidal effect rating, CYPIR” value [2, 9] was 9.0 and the “herbicidal effect rating, MOOVA” value [3, 6] was 9.0. The “herbicidal effect rating, MOOVA” value [3, 7] was 9.0, the “herbicidal effect rating, MOOVA” value [3, 8] was 9.0 and the “herbicidal effect rating, MOOVA” value [3, 9] was 9.0. For the same compound, the “herbicidal effect rating, SAGPY” value [4, 6] was 0.0, the “herbicidal effect rating, SAGPY” value [4, 7] was 0.0 and the “herbicidal effect rating, SAGPY” value [4, 8] was 3.0. The “herbicidal effect rating, SAGPY” value [4, 9] was 9.0, the “herbicidal effect rating ORYSAT” value ([5]; Rate 0.0320 kg/ha) was 0.0 and the “herbicidal effect rating ORYSAT” value ([5]; Rate 0.0620 kg/ha) was 0.0. The “herbicidal effect rating ORYSAT” value ([5]; Rate 0.1250 kg/ha) was 0.0 and the “herbicidal effect rating ORYSAT” value ([5]; Rate 0.2500 kg/ha) was 0.0.

In the case of `CNC.Cn1c(C(F)(F)F)cc(=O)n(-c2ccc3snc(CSCC(=O)O)c3c2)c1=O` [Example 299, Acetic acid, {{{5-[3,6-dihydro-3-methyl-2,6-dioxo-4-(trifluoromethyl)-1(2H)-pyrimidinyl)-1,2-benzisothiazol-3-yl}methyl}thio}-, dimethylamine salt], the “herbicidal effect rating, ECHORC” value [1, 6] is reported as 0.0, the “herbicidal effect rating, ECHORC” value [1, 7] is reported as 0.0 and the “herbicidal effect rating, ECHORC” value [1, 8] is reported as 2.0. For the same compound, the “herbicidal effect rating, ECHORC” value [1, 9] was 5.0, the “herbicidal effect rating, CYPIR” value [2, 6] was 3.0 and the “herbicidal effect rating, CYPIR” value [2, 7] was 7.0. The “herbicidal effect rating, CYPIR” value [2, 8] was 9.0, the “herbicidal effect rating, CYPIR” value [2, 9] was 9.0 and the “herbicidal effect rating, MOOVA” value [3, 6] was 7.0. For the same compound, the “herbicidal effect rating, MOOVA” value [3, 7] was 9.0, the “herbicidal effect rating, MOOVA” value [3, 8] was 9.0 and the “herbicidal effect rating, MOOVA” value [3, 9] was 9.0. For the same compound, the “herbicidal effect rating, SAGPY” value [4, 6] was 0.0, the “herbicidal effect rating, SAGPY” value [4, 7] was 0.0 and the “herbicidal effect rating, SAGPY” value [4, 8] was 3.0. For the same compound, the “herbicidal effect rating, SAGPY” value [4, 9] was 7.0, the “herbicidal effect rating ORYSAT” value ([5]; Rate 0.0320 kg/ha) was 0.0 and the “herbicidal effect rating ORYSAT” value ([5]; Rate 0.0620 kg/ha) was 0.0. For the same compound, the “herbicidal effect rating ORYSAT” value ([5]; Rate 0.1250 kg/ha) was 3.0 and the “herbicidal effect rating ORYSAT” value ([5]; Rate 0.2500 kg/ha) was 5.0.

In the case of `Cn1c(C(F)(F)F)cc(=O)n(-c2ccc3snc(C(Cl)Br)c3c2)c1=O` (centres unmarked) [Example 300, 2,4(1H,3H)-Pyrimidinedione, 3-[3-(bromochloromethyl)-1,2-benzisothiazol-5-yl]-1-methyl-6-(trifluoromethyl)-], the “herbicidal effect rating, ECHORC” value [1, 6] is reported as 3.0, the “herbicidal effect rating, ECHORC” value [1, 7] is reported as 6.0 and the “herbicidal effect rating, ECHORC” value [1, 8] is reported as 7.0. The “herbicidal effect rating, ECHORC” value [1, 9] was 9.0, the “herbicidal effect rating, CYPIR” value [2, 6] was 3.0 and the “herbicidal effect rating, CYPIR” value [2, 7] was 6.0. The “herbicidal effect rating, CYPIR” value [2, 8] was 9.0, the “herbicidal effect rating, CYPIR” value [2, 9] was 9.0 and the “herbicidal effect rating, MOOVA” value [3, 6] was 9.0. For the same compound, the “herbicidal effect rating, MOOVA” value [3, 7] was 9.0, the “herbicidal effect rating, MOOVA” value [3, 8] was 9.0 and the “herbicidal effect rating, MOOVA” value [3, 9] was 9.0. For the same compound, the “herbicidal effect rating, SAGPY” value [4, 6] was 2.0, the “herbicidal effect rating, SAGPY” value [4, 7] was 5.0 and the “herbicidal effect rating, SAGPY” value [4, 8] was 6.0. For the same compound, the “herbicidal effect rating, SAGPY” value [4, 9] was 7.0, the “herbicidal effect rating ORYSAT” value ([5]; Rate 0.0320 kg/ha) was 2.0 and the “herbicidal effect rating ORYSAT” value ([5]; Rate 0.0620 kg/ha) was 4.0. The “herbicidal effect rating ORYSAT” value ([5]; Rate 0.1250 kg/ha) was 4.0 and the “herbicidal effect rating ORYSAT” value ([5]; Rate 0.2500 kg/ha) was 5.0.

With `Cn1c(C(F)(F)F)cc(=O)n(-c2ccc3snc(C(=O)Oc4ccc(F)cc4)c3c2)c1=O` [Example 320, 1,2-Benzisothiazole-3-carboxylic acid, 5-[3,6-dihydro-3-methyl-2,6-dioxo-4-(trifluoromethyl)-1(2H)-pyrimidinyl]-, p-fluorophenyl ester] the “herbicidal effect rating, ECHORC” value [1, 6] was 0.0, the “herbicidal effect rating, ECHORC” value [1, 7] was 0.0 and the “herbicidal effect rating, ECHORC” value [1, 8] was 0.0. For the same compound, the “herbicidal effect rating, ECHORC” value [1, 9] was 2.5, the “herbicidal effect rating, CYPIR” value [2, 6] was 0.0 and the “herbicidal effect rating, CYPIR” value [2, 7] was 2.0. For the same compound, the “herbicidal effect rating, CYPIR” value [2, 8] was 5.5, the “herbicidal effect rating, CYPIR” value [2, 9] was 8.0 and the “herbicidal effect rating, MOOVA” value [3, 6] was 0.0. The “herbicidal effect rating, MOOVA” value [3, 7] was 0.0, the “herbicidal effect rating, MOOVA” value [3, 8] was 3.0 and the “herbicidal effect rating, MOOVA” value [3, 9] was 9.0. For the same compound, the “herbicidal effect rating, SAGPY” value [4, 6] was 1.0, the “herbicidal effect rating, SAGPY” value [4, 7] was 2.5 and the “herbicidal effect rating, SAGPY” value [4, 8] was 2.5. For the same compound, the “herbicidal effect rating, SAGPY” value [4, 9] was 5.0, the “herbicidal effect rating ORYSAT” value ([5]; Rate 0.0320 kg/ha) was 1.5 and the “herbicidal effect rating ORYSAT” value ([5]; Rate 0.0620 kg/ha) was 2.0. For the same compound, the “herbicidal effect rating ORYSAT” value ([5]; Rate 0.1250 kg/ha) was 2.0 and the “herbicidal effect rating ORYSAT” value ([5]; Rate 0.2500 kg/ha) was 2.5.

`COc1ccc(O)c(-c2nsc3ccc(-n4c(=O)cc(C(F)(F)F)n(C)c4=O)cc23)c1` [Example 361, 2,4(1H,3H)-Pyrimidinedione, 3-[3-(2-hydroxy-5-methoxyphenyl)-1,2-benzisothiazol-5-yl]-1-methyl-6-(trifluoromethyl)-] was tested, and the “herbicidal effect rating, ECHORC” value [1, 10] was 0.0, the “herbicidal effect rating, ECHORC” value [1, 11] was 0.0 and the “herbicidal effect rating, ECHORC” value [1, 12] was 0.0. For the same compound, the “herbicidal effect rating, ECHORC” value [1, 13] was 4.0, the “herbicidal effect rating, ECHORC” value [1, 14] was 4.0 and the “herbicidal effect rating, CYPIR” value [2, 10] was 0.0. For the same compound, the “herbicidal effect rating, CYPIR” value [2, 11] was 0.0, the “herbicidal effect rating, CYPIR” value [2, 12] was 0.0 and the “herbicidal effect rating, CYPIR” value [2, 13] was 6.0. The “herbicidal effect rating, CYPIR” value [2, 14] was 6.0, the “herbicidal effect rating, MOOVA” value [3, 10] was 9.0 and the “herbicidal effect rating, MOOVA” value [3, 11] was 9.0. The “herbicidal effect rating, MOOVA” value [3, 12] was 9.0, the “herbicidal effect rating, MOOVA” value [3, 13] was 9.0 and the “herbicidal effect rating, MOOVA” value [3, 14] was 9.0. For the same compound, the “herbicidal effect rating, SAGPY” value [4, 10] was 4.0, the “herbicidal effect rating, SAGPY” value [4, 11] was 4.0 and the “herbicidal effect rating, SAGPY” value [4, 12] was 5.0. For the same compound, the “herbicidal effect rating, SAGPY” value [4, 13] was 5.0, the “herbicidal effect rating, SAGPY” value [4, 14] was 5.0 and the “herbicidal effect rating ORYSAT” value ([5]; Rate 0.0320 kg/ha) was 0.0. The “herbicidal effect rating ORYSAT” value ([5]; Rate 0.0620 kg/ha) was 0.0, the “herbicidal effect rating ORYSAT” value ([5]; Rate 0.1250 kg/ha) was 4.0 and the “herbicidal effect rating ORYSAT” value ([5]; Rate 0.2500 kg/ha) was 5.0. For the same compound, the “herbicidal effect rating ORYSAT” value ([5]; Rate 0.5000 kg/ha) was 3.0.
